Experimental data from paper PMC8924334, “Synthesis of [^11C]carbonyl-labeled cyclohexyl (5-(2-acetamidobenzo[d]thiazol-6-yl)-2-methylpyridin-3-yl)carbamate ([^11C-carbonyl]PK68) as a potential PET tracer for receptor-interacting protein 1 kinase” (EJNMMI Radiopharmacy and Chemistry, 2022).
Values joined by “and” are separate entries in the source; they are usually repeats but may differ in a detail not shown here. Identical values can stand only once.

Experiments:
[1] = Lipophilicity (logD), n-octanol/PBS pH 7.4 shake-flask; assay type: physicochemical; settings: n-octanol/PBS pH 7.4, room temperature
Method: An aliquot of 0.65 mL PBS and 0.65 mL n-octanol was removed and weighed, and its radioactivity was determined using an autogamma counter (2480 Wizard^2, Perkin-Elmer, Waltham, MA, USA). Each sample from the remaining organic layer was removed and repartitioned until a consistent logD value was obtained. The logD value was calculated by comparing the ratio of counts per minute (cpm)/g of n-octanol to that of PBS, and is expressed as logD = log[cpm/g (n-octanol)/cpm/g (PBS)]. All measurements were performed in triplicate.

[2] = Metabolite analysis in plasma and liver; assay type: in vivo, mice
Method: Following intravenous injection of [^11C]PK68 (37 MBq, 0.1 mL), the mice (8–9 weeks, 40.1 ± 5.3 g) were killed by cervical dislocation at 5, 15, 30, and 60 min. Blood and liver samples were obtained immediately. Each blood sample was centrifuged in a heparinized tube at 15,000 g for 2 min at 4 °C to separate the plasma. The supernatant was collected in a test tube containing CH3CN, and the resulting mixture was vortexed for 15 s, then centrifuged at 15,000 g for 2 min for deproteinization. The resulting supernatant was collected. Each liver sample was homogenized using a Silent Crusher S homogenizer (Rose scientific, Edmonton, Canada) in ice-cooled saline. The resulting homogenate was mixed with an equivalent amount of CH3CN, and centrifuged at 15,000 g for 2 min for deproteinization. An aliquot of the supernatant (0.1–1.0 mL) obtained from the plasma or liver homogenate was injected into the HPLC system with a radioactivity detector, and analyzed using a Capcell Pak C18 column (4.6 mm i.d. × 250 mm, Shiseido) with a mobile phase [CH3CN/H2O/TFA, (45/55/0.1, v/v/v)] at a flow rate of 1.0 mL/min. The percentage ratio of [^11C]PK68 (tR = 5.0 min) to total radioactivity (corrected for decay) on the HPLC chromatogram was calculated as % = (peak area for [^11C]PK68/total peak area) × 100.

[3] = target: T1, RIPK1 (Mus musculus, UniProt Q60855); assay: Small-animal PET imaging, baseline and blocking with unlabeled PK68; assay type: in vivo, mice
T1 construct: RIPK1 in liver of healthy mouse would exist with nonnegligible level; from tissue; host or cells: living healthy mice; volumes of interest on heart, lung, liver, kidney, small intestine, muscle and brain
T1 sequence (Q60855 1-656): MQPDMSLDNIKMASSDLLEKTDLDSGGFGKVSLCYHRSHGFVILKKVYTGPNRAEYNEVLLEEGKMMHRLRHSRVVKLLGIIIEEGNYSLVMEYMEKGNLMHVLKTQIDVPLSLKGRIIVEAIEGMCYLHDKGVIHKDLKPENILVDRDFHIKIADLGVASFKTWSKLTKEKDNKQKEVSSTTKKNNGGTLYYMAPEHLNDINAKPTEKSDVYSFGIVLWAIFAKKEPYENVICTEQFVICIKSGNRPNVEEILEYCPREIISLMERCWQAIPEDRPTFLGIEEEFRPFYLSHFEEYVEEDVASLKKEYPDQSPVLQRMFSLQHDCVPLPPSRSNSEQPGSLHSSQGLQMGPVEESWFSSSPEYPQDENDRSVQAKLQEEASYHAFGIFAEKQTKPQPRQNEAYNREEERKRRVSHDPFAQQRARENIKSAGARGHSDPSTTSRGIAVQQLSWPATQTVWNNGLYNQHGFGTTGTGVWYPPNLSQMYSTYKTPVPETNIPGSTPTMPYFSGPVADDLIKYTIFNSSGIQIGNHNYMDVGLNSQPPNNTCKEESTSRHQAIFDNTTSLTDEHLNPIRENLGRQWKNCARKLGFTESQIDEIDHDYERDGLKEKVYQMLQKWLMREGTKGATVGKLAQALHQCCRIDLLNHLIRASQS
Method: Each mouse was anesthetized using 1.5% (v/v) isoflurane, and an intravenous catheter was inserted into its tail vein. The mice (10–14 weeks old, 48.1 ± 7.4 g) were subsequently maintained under anesthesia and secured in a custom-designed chamber placed in the center of a small-animal PET scanner (Inveon, Siemens Healthineers, Erlangen, Germany). After adjusting the target position for scanning, dynamic emission scans (in three-dimensional list mode) were performed for 60 min (1 min × 4 frames, 2 min × 8 frames, and 5 min × 8 frames). [^11C]PK68 (11–16 MBq) was injected via a tail vein catheter. The body temperature of each mouse was maintained at 37 °C using a heated (40 °C) water circulation system (T/Pump TP401, Gaymar Industries, NY, USA) during the PET scan. For the blocking study, the mice were pretreated with unlabeled PK68 (1 mg/kg) just before the injection of [^11C]PK68. The obtained dynamic PET images (0.6 mm slice thickness) were reconstructed by filtered-back projection using a Hanning filter, with a Nyquist cutoff of 0.5 cycles per pixel. The time–activity curves (TACs) of [^11C]PK68 were acquired using PMOD software (version 3.4, PMOD Technology, Zurich, Switzerland) from the volumes of interest, which were manually mapped onto the heart, lung, liver, kidney, small-intestine (part of duodenum), muscle, and brain. The radioactivity was decay-corrected to the injection time and is expressed as a standardized uptake value (SUV), normalized for injected radioactivity and body weight. The SUV was calculated according to the following formula: SUV = (radioactivity per milliliter tissue/injected radioactivity) × body weight (g). We also calculated the area under the curve (AUC) using TACs from 0 to 60 min.

[4] = blocking with unlabeled PK68 1 mg/kg i.v.

SMILES: Cc1ncc(-c2ccc3nc(N[11C](C)=O)sc3c2)cc1NC(=O)OC1CCCCC1 [[^11C]PK68, Cyclohexyl (5-(2-[^11C-carbonyl]acetamidobenzo[d]thiazol-6-yl)-2-methylpyridin-3-yl)carbamate]
- logD [1]: 4
- unchanged [11C]PK68 in liver ([2]; 5 min after injection): 85%
- unchanged [11C]PK68 in plasma ([2]; 5 min after injection): 85%
- unchanged [11C]PK68 in liver ([2]; 15 min after injection): 67%
- unchanged [11C]PK68 in plasma ([2]; 15 min after injection): 66%
- unchanged [11C]PK68 in liver ([2]; 30 min after injection): 68%
- unchanged [11C]PK68 in plasma ([2]; 30 min after injection): 65%
- unchanged [11C]PK68 in liver ([2]; 60 min after injection): 57%
- unchanged [11C]PK68 in plasma ([2]; 60 min after injection): 57% and > 50%
- peak radioactivity in kidney ([3]; baseline): 2.7 SUV
- peak radioactivity in liver ([3]; baseline): 4.8 SUV
- uptake of radioactivity by the brain ([3]; baseline mice, PET, i.v.): < 0.3 SUV
- time of peak radioactivity in kidney ([3]; baseline, after injection): 1.5 min
- time of peak radioactivity in liver ([3]; baseline, after injection): 2.5 min
- peak radioactivity in kidneys [3, 4]: 2.3 SUV
- peak radioactivity in liver [3, 4]: 4.2 SUV
- specific binding for RIPK1 in PET imaging ([3]; healthy mice): no obvious specific binding
- difference in AUC (0-60 min) in liver and kidney, baseline vs blocking ([3]; n = 2 per group): no significant differences
- reduction of maximum SUV in liver and kidney by blocking ([3]; unlabeled PK68 1 mg/kg i.v.): roughly 15%
